From patent publication US5670619A, “Bradykinin-antagonists for the treatment of acute pancreatitis” (Hoechst Aktiengesellschaft, priority 1991, dated 1997)

Experiments:
Format in all cases: in vivo
[1] = system: bradykinin (injected, or split off from kininogen by kallikrein); assay: Inhibition of the fall in blood pressure evoked by bradykinin and kallikrein in anaesthetized rabbits; details: anaesthetized rabbit, peptide 3 nmol/kg i.v.
Procedure: Methods: Rabbits of either sex (3.5-5.0 kg) were anaesthetized with pentobarbitone sodium (35 mg/kg i.v.). Arterial blood pressure was monitored in a carotid artery using a Statham pressure transducer. I.v. injections of bradykinin (1 to 10 nmol/kg) or kallikrein (1 to 10 U/kg) were made into a jugular vein at intervals of 10 min. A peptide of the formula I (3 nmol/kg) was given i.v. and the injections of bradykinin or kallikrein were then repeated.

[2] = system: caerulein-induced pancreatic oedema; assay: Pancreatic oedema (water and Evans blue content of pancreas) in caerulein-induced pancreatitis in rats; details: rat; for Pancreatic oedema: Evans blue / Pancreatic oedema: water: A s.c. 100 nmol/kg, mean ± SEM, n = 10
Description: General methods: To induce experimental pancreatitis in animals, a number of procedures have been used including ligation of the pancreatic duct, injection of bile salts into the pancreatic duct, infusion of oleic acid, or infusion of the amphibian cholecystokinin analogue, caerulein. The latter procedure produces a hyperstimulation of the exocrine function of the pancreas and leads to morphological changes that share many features also seen in human acute pancreatitis (Willemer S., Bialek R., Kohler H. Adler G.; "Caerulein-induced acute pancreatitis in rats: changes in glycoprotein-composition of subcellular membrane systems in acinar cells;" Histochemistry 1990; 95; 87-96). Caerulein-induced pancreatitis in rats was used for the following experiments.
(§1) Method: Female Sprague-Dawley rats (260±30 g) were anaesthetized with pentobarbitone sodium (40 mg/kg, i.p.) and phenobarbitone sodium (160 mg/kg, i,p.). […] 10 min later, the animals were given a s.c. injection of a peptide of the formula I (100 nmol/kg) or of a corresponding volume (0.5 ml/kg) of a 154 mM sodium chloride solution. The systemic arterial blood pressure was monitored in a carotid artery using a Statham pressure transducer. A jugular vein was cannulated to allow the infusion of either caerulein (4 nmol/kg/h) or of physiological saline (0.034 ml/min). The infusion was started 30 min after the s.c. injection of a peptide of the formula I or saline, and lasted for 2 h. At the end of the experiment the animals were killed by decapitation; the blood was collected for the determination of serum amylase and lipase.
Method: Quantification of the pancreatic oedema was achieved by measuring the dry weight of pancreas and the accumulation of plasma proteins in pancreas. At the end of the infusions (see blood pressure experiments), the blood was collected for measuring enzymes in serum. The pancreas was excised and weighed. After drying the tissue, the difference between wet and dry weight, in relation to dry weight, was used as a measure for the water content of the tissue. 5 mg/kg of Evans blue, which quantitatively binds to serum albumin (Rawson R. A.: "The binding of T-1824 and structurally related diazo dyes by plasma proteins", Amer. J. Physiol. 1943, 138, 708-717) was injected i.v. immediately before the start of the i.v. infusion of caerulein or physiological saline. Thereafter the pancreatic tissue was used to measure Evans blue concentration photometrically (Gamse R., Holzer P., Lembeck F.: "Decrease of substance P in primary afferent neurones and impairment of neurogenic plasma extravasation by capsaicin", Br. J. Pharmacol. 1980, 68, 207-213; Saria A., Lundberg J. M.: "Evans blue fluorescence: quantitative and morphological evaluation of vascular permeability in animal tissues", J. Neurosci. Meth. 1983, 8, 41-49). Control animals were treated with corresponding volumes of saline instead of a peptide of the formula I or caerulein. Plasma extravasation was quantified as content of water and Evans blue in the pancreas.

[3] = system: pancreatic enzymes in serum; assay: Serum amylase and lipase activities in caerulein-induced pancreatitis in rats; details: rat, A s.c., no CRL i.v., n = 6
Procedure: as §1
Methods: Serum amylase was determined using a kinetic colour test with 2-chlor-4-nitrophenyl-D-maltoheptoside (Amylase test kit Roche, F.R.G.). Serum lipase was measured by the reduction of the turbidity due to cleavage of triolein to monoglyceride and oleic acid (Monotest Lipase, Boehringer Mannheim, F.R.G.). The detection limits for amylase and lipase were 11 U/I and 16 U/l, respectively. Control animals were treated with corresponding volumes of saline instead of a peptide of the formula I.

[4] = system: caerulein-induced increase of water and Evans blue content in the pancreas; assay: Comparison of peptide A with the Berg et al. antagonist, given after onset of caerulein infusion in rats; details: rat; given 10 minutes after the outset of the caerulein infusion; Berg antagonist in a dose 10 times higher than peptide A
Procedure: Additionally D-Arg^0 -HYP^3 -Thi^5.8 D-Phe^7 -BK disclosed by Berg et al. (see page 1) has been tested in comparision with the peptide A. Both antagonists were given in two groups of rats under identical conditions 10 minutes after the outset of the infusion of caerulein.

Compound: N=C(N)NCCC[C@@H](N)C(=O)N[C@@H](CCCNC(=N)N)C(=O)N1CCC[C@H]1C(=O)N1C[C@H](O)C[C@H]1C(=O)NCC(=O)N[C@@H](Cc1cccs1)C(=O)N[C@@H](CO)C(=O)N1Cc2ccccc2C[C@@H]1C(=O)N1[C@H](C(=O)N[C@@H](CCCNC(=N)N)C(=O)O)C[C@@H]2CCCC[C@@H]21 [peptide A, H-D-Arg-Arg-Pro-Hyp-Gly-Thi-Ser-D-Tic-Oic-Arg-OH]
- fall in blood pressure evoked by bradykinin ([1]; bradykinin 1 to 10 nmol/kg i.v.): completely blocked
- fall in blood pressure evoked by kallikrein ([1]; kallikrein 1 to 10 U/kg i.v.): completely blocked
- Pancreatic oedema: Evans blue ([2]; CRL i.v.): 18.21 ± 4.24 μg/g dry wgt
- Pancreatic oedema: water ([2]; CRL i.v.): 3.11 ± 0.33 g/g dry wgt
- Pancreatic oedema: Evans blue ([2]; no CRL i.v.): 20.31 ± 5.80 μg/g dry wgt
- Pancreatic oedema: water ([2]; no CRL i.v.): 2.62 ± 0.23 g/g dry wgt
- CRL induced pancreatic oedema ([2]; result in words): completely inhibited
- Serum Amylase activity ([3]; mean ± SEM): 3.19 ± 0.21 U/ml
- Serum Lipase activity ([3]; nn = not detectable): nn
- increase of Evans blue content in the pancreas [4]: completely inhibited
- increase of water content in the pancreas [4]: completely inhibited
